Laboratory results from US20100063047A1 (KALYPSYS, INC., priority 2008, published 2010).
pEC50: −log10 of the molar value.

What was measured:
human H1 = target: T1, human H1 (Homo sapiens, UniProt P35367); assay: In vitro histamine H1 receptor cell-based aequorin bioluminescence antagonist assay; conditions: CHO-K1 cells expressing human H1 and aequorin; histamine at EC80; read-out: H1 Antagonist EC50
T1 construct: host or cells: CHO-K1, also expressing mitochondrion-targeted aequorin
Outline: (§1)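 CHO-K1 cells stably expressing human H1 or H4 plus mitochondrial aequorin (H4 also with Gα16), loaded with 5 μM coelenterazine-h for 4 h at ~21 °C. Compounds preincubated 15 min at room temperature, then histamine at EC80 added.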

human H4 = target: T2, human H4 (Homo sapiens, UniProt Q9H3N8); assay: In vitro histamine H4 receptor cell-based aequorin bioluminescence antagonist assay; conditions: CHO-K1 cells expressing human H4, aequorin and Gα16; histamine at EC80
T2 construct: host or cells: CHO-K1, also expressing mitochondrion-targeted aequorin and human Gα16
Outline: as §1

T1 sequence (P35367 whole entry): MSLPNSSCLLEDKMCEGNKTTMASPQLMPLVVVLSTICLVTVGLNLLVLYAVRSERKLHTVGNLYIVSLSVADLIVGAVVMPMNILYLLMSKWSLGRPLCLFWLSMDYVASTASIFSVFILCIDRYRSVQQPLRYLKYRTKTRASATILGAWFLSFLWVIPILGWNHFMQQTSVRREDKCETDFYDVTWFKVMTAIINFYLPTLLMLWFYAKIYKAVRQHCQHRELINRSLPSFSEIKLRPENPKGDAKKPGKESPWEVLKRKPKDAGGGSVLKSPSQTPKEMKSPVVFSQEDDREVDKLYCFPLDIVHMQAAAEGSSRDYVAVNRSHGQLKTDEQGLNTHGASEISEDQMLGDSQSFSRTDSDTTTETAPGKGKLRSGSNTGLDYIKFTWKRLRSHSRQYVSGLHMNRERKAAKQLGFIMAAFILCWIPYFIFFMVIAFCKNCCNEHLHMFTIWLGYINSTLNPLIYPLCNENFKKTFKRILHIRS

Compound | pEC50 (human H1) | pEC50 (human H4)
Cc1csc2ncnc(N3C[C@@H](C)N[C@@H](C)C3)c12 [Example 203, (3R,5S)-3,5-dimethyl-1-{5-methylthieno[2,3-d]pyrimidin-4-yl}piperazine] | < 5.00 | < 5.00
Cc1csc2ncnc(N(Cc3cccnc3)Cc3cccnc3)c12 [Example 268, 5-methyl-N,N-bis(pyridin-3-ylmethyl)thieno[2,3-d]pyrimidin-4-amine] | < 5.00 | < 5.00
Cc1csc2ncnc(N3CCCC(CO)C3)c12 (stereo not drawn) [Example 204, (1-{5-methylthieno[2,3-d]pyrimidin-4-yl}piperidin-3-yl)methanol] | < 5.00 | < 5.00
Cc1csc2ncnc(N3CCN(C(=O)OC(C)(C)C)C[C@H]3CO)c12 [Example 283, tert-butyl (3S)-3-(hydroxymethyl)-4-{5-methylthieno[2,3-d]pyrimidin-4-yl}piperazine-1-carboxylate] | < 5.00 | < 5.00
Cc1csc2ncnc(N3CCCC(C(N)=O)C3)c12 (stereo not drawn) [Example 213, 1-{5-methylthieno[2,3-d]pyrimidin-4-yl}piperidine-3-carboxamide] | < 5.00 | < 5.00
Cc1csc2ncnc(N3CCN(c4ccc(O)cc4)CC3)c12 [Example 243, 4-(4-{5-methylthieno[2,3-d]pyrimidin-4-yl}piperazin-1-yl)phenol] | < 5.00 | < 5.00
Cc1csc2ncnc(N3CCN(c4cccc(Cl)c4)CC3)c12 [Example 265, 1-(3-chlorophenyl)-4-{5-methylthieno[2,3-d]pyrimidin-4-yl}piperazine] | < 5.00 | < 5.00
Cc1csc2ncnc(N(C)C(Cc3ccccc3)c3ccccc3)c12 (stereo not drawn) [Example 278, N-(1,2-diphenylethyl)-N,5-dimethylthieno[2,3-d]pyrimidin-4-amine] | < 5.00 | < 5.00
Cc1csc2ncnc(N3CCC(O)(c4ccc(Cl)cc4)CC3)c12 [Example 280, 4-(4-chlorophenyl)-1-{5-methylthieno[2,3-d]pyrimidin-4-yl}piperidin-4-ol] | < 5.00 | < 5.00
COc1ccc(N2CCN(c3ncnc4scc(C)c34)CC2)cc1 [Example 261, 1-(4-methoxyphenyl)-4-{5-methylthieno[2,3-d]pyrimidin-4-yl}piperazine] | < 5.00 | < 5.00
Cc1csc2ncnc(N3CCC(O)(O)CC3)c12 [Example 228, 1-{5-methylthieno[2,3-d]pyrimidin-4-yl}piperidine-4,4-diol] | < 5.00 | < 5.00
Clc1ccc(CCNc2ncnc3[nH]ccc23)cc1 [Example 28, N-(4-chlorophenethyl)-7H-pyrrolo[2,3-d]pyrimidin-4-amine] | < 5.00 | < 5.00
Cc1csc2ncnc(N3CC(C)CC(C)C3)c12 (stereo not drawn) [Example 199, 3,5-dimethyl-1-{5-methylthieno[2,3-d]pyrimidin-4-yl}piperidine] | < 5.00 | < 5.00
COc1ccccc1N1CCN(c2ncnc3scc(C)c23)CC1 [Example 262, 1-(2-methoxyphenyl)-4-{5-methylthieno[2,3-d]pyrimidin-4-yl}piperazine] | < 5.00 | < 5.00
CC(=O)N[C@H]1CCN(c2ncnc3scc(C)c23)C1 [Example 212, N-[(3S)-1-{5-methylthieno[2,3-d]pyrimidin-4-yl}pyrrolidin-3-yl]acetamide] | < 5.00 | < 5.00
Cc1csc2ncnc(N3CCN(c4cccc(C(F)(F)F)c4)CC3)c12 [Example 288, 1-{5-methylthieno[2,3-d]pyrimidin-4-yl}-4-[3-(trifluoromethyl)phenyl]piperazine] | < 5.00 | < 5.00
Cc1csc2ncnc(N3CCN(c4ccc(C(C)(C)C)cc4)CC3)c12 [Example 284, 1-(4-tert-butylphenyl)-4-{5-methylthieno[2,3-d]pyrimidin-4-yl}piperazine] | < 5.00 | < 5.00
Cc1csc2ncnc(N(CCCO)Cc3ccccn3)c12 [Example 237, 3-({5-methylthieno[2,3-d]pyrimidin-4-yl}(pyridin-2-ylmethyl)amino)propan-1-ol] | < 5.00 | < 5.00
Cc1csc2ncnc(N3CCN(c4ccccc4)CC3)c12 [Example 233, 1-{5-methylthieno[2,3-d]pyrimidin-4-yl}-4-phenylpiperazine] | < 5.00 | < 5.00

Further lines, results first:

pEC50 (human H1) | pEC50 (human H4) | Compound
< 5.00 | < 5.00 | Cc1csc2ncnc(NCCCO)c12 [Example 62, 3-({5-methylthieno[2,3-d]pyrimidin-4-yl}amino)propan-1-ol]
< 5.00 | < 5.00 | Cc1csc2ncnc(NCc3ccc(N(C)C)cc3)c12 [Example 170, N-{[4-(dimethylamino)phenyl]methyl}-5-methylthieno[2,3-d]pyrimidin-4-amine]
< 5.00 | < 5.00 | Cc1csc2ncnc(NCCN(C)C)c12 [Example 70, dimethyl[2-({5-methylthieno[2,3-d]pyrimidin-4-yl}amino)ethyl]amine]
< 5.00 | < 5.00 | Cc1csc2ncnc(NCC(C)C)c12 [Example 61, 5-methyl-N-(2-methylpropyl)thieno[2,3-d]pyrimidin-4-amine]
< 5.00 | < 5.00 | Cc1csc2ncnc(NN3CCN(C)CC3)c12 [Example 93, 4-methyl-N-{5-methylthieno[2,3-d]pyrimidin-4-yl}piperazin-1-amine]
< 5.00 | < 5.00 | Cc1cnc(CNc2ncnc3scc(C)c23)cn1 [Example 101, 5-methyl-N-[(5-methylpyrazin-2-yl)methyl]thieno[2,3-d]pyrimidin-4-amine]
< 5.00 | < 5.00 | Cc1csc2ncnc(NCc3ccncc3)c12 [Example 86, 5-methyl-N-(pyridin-4-ylmethyl)thieno[2,3-d]pyrimidin-4-amine]
< 5.00 | < 5.00 | Cc1csc2ncnc(N(C)CC(C)C)c12 [Example 185, N,5-dimethyl-N-(2-methylpropyl)thieno[2,3-d]pyrimidin-4-amine]
< 5.00 | < 5.00 | Cc1csc2ncnc(NC3CC3)c12 [Example 53, N-cyclopropyl-5-methylthieno[2,3-d]pyrimidin-4-amine]
< 5.00 | < 5.00 | CCN(c1ncnc2scc(C)c12)C(C)C [Example 186, N-ethyl-5-methyl-N-(propan-2-yl)thieno[2,3-d]pyrimidin-4-amine]
< 5.00 | < 5.00 | Cc1csc2ncnc(N(C)CCO)c12 [Example 183, 2-[methyl({5-methylthieno[2,3-d]pyrimidin-4-yl})amino]ethan-1-ol]
< 5.00 | < 5.00 | CCCNc1ncnc2scc(C)c12 [Example 54, 5-methyl-N-propylthieno[2,3-d]pyrimidin-4-amine]
< 5.00 | < 5.00 | Cc1csc2ncnc(NCCC3CCCN3C)c12 (stereo not drawn) [Example 106, 5-methyl-N-[2-(1-methylpyrrolidin-2-yl)ethyl]thieno[2,3-d]pyrimidin-4-amine]
< 5.00 | < 5.00 | Cc1csc2ncnc(NCc3ccccc3OC(F)(F)F)c12 [Example 172, 5-methyl-N-{[2-(trifluoromethoxy)phenyl]methyl}thieno[2,3-d]pyrimidin-4-amine]
